Measured values as given in patent US20150209379A1, “TREATMENT OF PROSTATE CANCER AND HEMATOLOGIC NEOPLASMS” (THOMAS JEFFERSON UNIVERSITY, priority 2012, published 2015).

molecular target: T1, Stat5a (Homo sapiens, UniProt P42229); experiment: Stat5a dimerization (FLAG-/MYC-tagged Stat5a co-immunoprecipitation) in PC-3 cells; assay type: cell-based; design: expressed in transfected cells; host or cells: PC-3 human prostate cancer cells; conditions: 2 hours pretreatment, then hPrl 10 nM 30 minutes
T1 sequence (P42229 1-794): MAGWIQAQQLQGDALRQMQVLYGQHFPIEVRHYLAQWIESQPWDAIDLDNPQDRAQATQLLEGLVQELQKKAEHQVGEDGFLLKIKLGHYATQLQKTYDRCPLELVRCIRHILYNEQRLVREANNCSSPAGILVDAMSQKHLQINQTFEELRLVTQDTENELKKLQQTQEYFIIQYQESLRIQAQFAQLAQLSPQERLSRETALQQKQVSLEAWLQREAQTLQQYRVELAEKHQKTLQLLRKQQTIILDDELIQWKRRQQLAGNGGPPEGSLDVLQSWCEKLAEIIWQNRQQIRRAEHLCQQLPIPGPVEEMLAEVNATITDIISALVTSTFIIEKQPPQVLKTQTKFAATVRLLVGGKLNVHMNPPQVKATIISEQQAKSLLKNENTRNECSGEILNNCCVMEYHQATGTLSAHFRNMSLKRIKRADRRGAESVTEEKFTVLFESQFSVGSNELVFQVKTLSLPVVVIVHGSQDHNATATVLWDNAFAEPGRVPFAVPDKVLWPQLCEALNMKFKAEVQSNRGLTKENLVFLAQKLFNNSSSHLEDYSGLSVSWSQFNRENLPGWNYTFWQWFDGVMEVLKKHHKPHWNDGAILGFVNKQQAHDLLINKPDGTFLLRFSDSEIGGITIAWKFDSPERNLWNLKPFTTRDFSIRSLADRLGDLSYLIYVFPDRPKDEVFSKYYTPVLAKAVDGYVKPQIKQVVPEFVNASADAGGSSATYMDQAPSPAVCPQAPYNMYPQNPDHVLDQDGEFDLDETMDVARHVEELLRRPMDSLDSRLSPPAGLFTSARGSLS
Protocol: (§1) FLAG-tagged Stat5a and MYC-tagged Stat5a were generated by standard molecular biology cloning techniques. Plasmid pCMV3-FLAG-Stat5a, pCMV3-MYC-Stat5a and pPr1R were co-transfected using FuGENE6 (Roche) into PC-3 cells (2 μg of each plasmid per 1×10^7 cells). The cells were starved for 20 hours, pretreated with test compound for 2 hours, then stimulated with hPrl (10 nM) in RPMI 1640 without serum for 30 minutes. The cell lysates were immunoprecipitated with 25 μl anti-FLAG M2 […] affinity gel (2 μg/ml, Sigma), anti-MYC pAb (1 μg/ml, Upstate) or normal rabbit serum (NRS). The primary antibodies were used in the immunoblottings at the following concentrations: anti-FLAG pAb (1:1000; Stratagene), anti-MYC mAb (1:1000; Sigma), anti-Stat5a/b mAb (1:250) (Transduction Laboratories) detected by horseradish peroxidase-conjugated secondary antibodies. The results are shown in FIG. 3A for Compound 1 and FIG. 3B for Compound 2.
Lanes 1, 2, 4, 6 and 8 represent cells stimulated with human prolactin (Prl) for 30 minutes which induces dimerization of Stat5. Two hours prior to Prl-stimulation, the cells had been treated with DMSO (lanes 1-4), the control compound C5 (lanes 7 and 8) and either Compound 1 (lanes 5 and 6 in FIG. 3A) or Compound 2 (lanes 5 and 6 in FIG. 3B). […] It should be noted the drug effect in this study was not due to cell apoptosis induction, as the treatment time was only 2 hours. Treatment of at least 48 hours is required for the compound to induce prostate cancer cell apoptosis.
as §1, with “and pPrlR” for “and pPr1R”, “hours, pre-treated” for “hours, pretreated”, “with NBPP” for “with test compound”, “2 h,” for “2 hours,”, “antibodies.” for “antibodies. The results are shown in FIG. 3A for Compound 1 and FIG. 3B for Compound 2.”
Lanes 1, 2, 4, 6 and 8 represent cells stimulated with human prolactin (Prl) for 30 minutes which induces dimerization of Stat5. Two hours prior to Prl-stimulation, the cells had been treated with DMSO (lanes 1-4), the control compound C5 (lanes 5 and 6) or NBPP (lanes 7 and 8) to test whether the Stat5a/b-inhibitor compound, NBPP, would be able to inhibit dimerization of StatS. […] It should be noted the drug effect in this study was not due to cell apoptosis induction, as the treatment time was only 2 hours. Treatment of at least 48 hours is required for the compound to induce prostate cancer cell apoptosis.
FLAG-tagged Stat5a and MYC-tagged Stat5a were generated by standard molecular biology cloning techniques.as follows. […] The primary antibodies were used in the immunoblottings at the following concentrations: anti-FLAG pAb (1:1000; Stratagene), anti-MYC mAb (1:1000; Sigma), anti-Stat5a/b mAb (1:250) (Transduction Laboratories) detected by horseradish peroxidase-conjugated secondary antibodies. […]

Structure (SMILES) | effect on Stat5a dimerization
OC[C@H]1O[C@@H](n2cnc3c(NNc4ccccc4)ncnc32)[C@H](O)[C@@H]1O [Compound 2, (2R,3S,4R,5R)-2-(hydroxymethyl)-5-(6-(2-phenylhydrazinyl)-9H-purin-9-yl)tetrahydrofuran-3,4-diol] | effectively inhibited Stat5a dimerization
OC[C@H]1O[C@@H](n2cnc3c(N4CCc5ccccc5C4)ncnc32)[C@H](O)[C@@H]1O [Compound 1, (2R,3R,4S,5R)-2-(6-(3,4-Dihydroisoquinolin-2(1H)-yl)-9H-purin-9-yl)-5-(hydroxymethyl)tetrahydrofuran-3,4-diol] | effectively inhibited Stat5a dimerization
OC[C@H]1O[C@@H](n2ccc3c(NCc4ccccc4)ncnc32)[C@H](O)[C@@H]1O [NBPP, N-(phenylmethyl)-7-β-D-ribofuranosyl-7H-pyrrolo[2,3-d]pyrimidin-4-amine] | effectively inhibited Stat5a dimerization
OC[C@H]1O[C@@H](n2cnc3c(NCc4ccccc4)ncnc32)[C@H](O)[C@@H]1O [Compound N6BA, N^6-benzyladenosine] | effectively inhibited Stat5a dimerization
